Experimental data reported in article PMC6891447, “Andean Prumnopitys Andina (Podocarpacae) Fruit Extracts: Characterization of Secondary Metabolites and Potential Cytoprotective Effect” (Molecules, 2019).
Where two headings read alike, the source gives them in different places. Each block holds one compound with its values, some of them ahead of it.

Key:
[1] = DPPH radical discoloration (scavenging) assay; assay type: physicochemical
Protocol: (§1) The antioxidant capacity of the extracts was evaluated by the discoloration of the DPPH radical, the ferric reducing power (FRAP), the scavenging of the ABTS radical (TEAC) and the oxygen radical absorbance capacity (ORAC). […] Trolox and quercetin were used as reference compounds. The DPPH, FRAP and TEAC assays were performed according to Jiménez-Aspee et al.. The ORAC assay was carried out following the methodology of Ou et al. with slight modifications. All determinations were carried out in triplicate and results are presented as mean values ± standard deviation (SD).

pancreatic lipase = molecular target: T1, pancreatic lipase (Sus scrofa, UniProt P00591); assay: Pancreatic lipase inhibition assay; assay type: biochemical, porcine; settings: Sephadex fractions
T1 construct: purchased Sigma-Aldrich L-3126; host or cells: porcine pancreas
T1 sequence (P00591 1-450): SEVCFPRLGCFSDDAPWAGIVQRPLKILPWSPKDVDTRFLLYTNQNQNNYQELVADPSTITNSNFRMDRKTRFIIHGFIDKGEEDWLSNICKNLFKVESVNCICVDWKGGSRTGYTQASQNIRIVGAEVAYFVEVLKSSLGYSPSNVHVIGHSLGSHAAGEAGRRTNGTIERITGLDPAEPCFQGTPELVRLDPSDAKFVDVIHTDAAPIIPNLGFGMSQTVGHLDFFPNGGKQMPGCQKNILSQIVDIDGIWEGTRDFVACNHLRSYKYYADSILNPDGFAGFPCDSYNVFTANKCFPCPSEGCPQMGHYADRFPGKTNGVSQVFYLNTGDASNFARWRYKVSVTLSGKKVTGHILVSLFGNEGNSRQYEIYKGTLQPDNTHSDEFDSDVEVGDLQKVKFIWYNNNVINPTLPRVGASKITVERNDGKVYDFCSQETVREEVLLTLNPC

[2] = Oxygen radical absorbance capacity (ORAC) assay; assay type: physicochemical
Protocol: as §1

[3] = Ferric reducing power (FRAP) assay; assay type: physicochemical
Protocol: as §1

α-glucosidase = α-glucosidase (Saccharomyces cerevisiae, UniProt P53341); assay: α-Glucosidase inhibition assay; assay type: biochemical; settings: read-out: α-Glucosidase Inhibition (percentage of inhibition)
Excerpt: The chemicals, enzymes and reagents acquired from Sigma-Aldrich (St. Louis, MO, USA) were the following: α-amylase from porcine pancreas (A3176; EC 3.2.1.1), α-glucosidase from Saccharomyces cerevisiae (G5003; EC 3.2.1.20), acetic acid, AlCl3, Amberlite XAD7 HP, catechin, DPPH (2,2-diphenyl-1-picrylhydrazyl radical), 3,5-dinitrosalicylic acid, porcine pancreas lipase type II (L-3126; EC 3.1.1.3), Na2CO3, 4-nitrophenyl-α-D-glucopyranoside, p-nitrophenyl palmitate, p-anisaldehyde, quercetin, sodium acetate, starch, 2,4,6-tri(2-pyridyl)1,3,5-triazine (TPTZ), trichloracetic acid, thiobarbituric acid, and triton X-100. The following materials were purchased from Merck (Darmstadt, Germany): 6-hydroxy-2,5,7,8-tetramethylchroman-2-carboxylic acid (Trolox), ethyl acetate, FeCl3 × 6H2O, potassium sodium tartrate and HPLC-grade methanol. Pepsin A (P3271) was from US Biological (Salem, MA, USA). […]
Potential inhibition of α-glucosidase by XAD7 extracts and fractions from the LH-20 column was tested under conditions that simulate, at least in part, those of the small intestine. […] Resulting enzyme activity was then measured by adding 20 µL of 5 mM p-nitrophenyl-α-D-glucopyranoside into the wells and incubating for additional 15 min at 37 °C. […] Final absorbance was measured at 415 nm in a Biotek ELx801 (Winooski, VT, USA) microplate reader. […]

[4] = Scavenging of the ABTS radical (TEAC) assay; assay type: physicochemical
Protocol: as §1

α-amylase = molecular target: T2, α-amylase (Sus scrofa, UniProt P00690); assay: α-Amylase inhibition assay; assay type: biochemical, porcine; settings: Sephadex fractions
T2 construct: purchased Sigma-Aldrich A3176; host or cells: porcine pancreas
T2 sequence (P00690 16-511): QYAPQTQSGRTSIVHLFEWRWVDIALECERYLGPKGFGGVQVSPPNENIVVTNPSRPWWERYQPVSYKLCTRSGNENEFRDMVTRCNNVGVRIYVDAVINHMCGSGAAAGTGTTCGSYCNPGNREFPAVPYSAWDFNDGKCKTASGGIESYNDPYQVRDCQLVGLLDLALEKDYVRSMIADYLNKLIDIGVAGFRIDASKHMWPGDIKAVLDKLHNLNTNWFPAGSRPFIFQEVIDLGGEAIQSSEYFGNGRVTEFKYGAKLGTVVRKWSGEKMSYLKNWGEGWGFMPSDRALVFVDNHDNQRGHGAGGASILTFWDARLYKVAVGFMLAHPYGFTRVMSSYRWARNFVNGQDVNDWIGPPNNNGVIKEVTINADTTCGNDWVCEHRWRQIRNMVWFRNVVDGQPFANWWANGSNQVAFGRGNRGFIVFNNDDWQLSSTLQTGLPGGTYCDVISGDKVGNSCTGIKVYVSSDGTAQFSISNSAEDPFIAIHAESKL

[5] = TBARS generation in turkey meat under simulated gastric digestion; settings: pH 3.0, 37 °C, 1 h
Protocol: This assay was carried out according to Kanner et al., with slight modifications. Briefly, the simulated gastric fluid (SGF) contained final concentration of NaCl (0.2% w/v), pepsin (0.32% w/v) and 700 µL of HCl (37%), adjusted to a final volume of 100 mL with ultrapure water. Thirty grams of turkey meat were ground with 90 mL of the SGF solution for 1 min in a blender and adjusted to pH 3.0 with 100 µL of 7N HCl. Fifteen mL of the SGF-meat mixture was aliquoted in 100 mL Erlenmeyer flasks. The powdered extract was weighed and added to the homogenate (meat–liquid mixture) to achieve final concentrations ranging from 0–500 µg/mL in the 15 mL SGF-meat mixture. The P. andina sample consisted in a pool of the extracts from different collection years. The flasks were placed in a shaking water bath at 37 °C during 1 h. At the end of the incubation, 800 µL of the samples, controls (without extracts) and blanks (without meat) were centrifuged at 20,000× g for 15 min at 4 °C. Lipid peroxidation was determined quantifying TBARS. For this purpose, the supernatant resulting from the centrifugation (750 µL) was mixed with 750 µL of TBA solution (0.37% TBA, 15% trichloroacetic acid in 0.25 N HCl), and boiled during 20 min. The absorbance was determined at 532 nm. All determinations were carried out in triplicate and results are presented as IC50 values (μg extracts/mL) ±SD. […]

AGS cells [6] = assay: Intracellular total antioxidant activity (TAA) in AGS cells; assay type: cell-based, human; settings: rutin 100 µg/mL; non-significant
Protocol: The TAA was carried out according to Ferrari et al.. AGS cells were plated at 25,000 cells/mL in 3 cm diameter Petri dishes. One day after confluence, AGS cells were pre-incubated overnight (16 h) with 3 mL of the pool of P. andina XAD7 extracts, in different concentrations (0–400 µg extract/mL). For comparison purposes, rutin (100 µg/mL) was also included in this experiment. All samples were prepared in medium supplemented with 2% FBS. Cells treated only with culture medium were used as the control of the basal antioxidant level. The next morning, cells were collected with a cell scraper and centrifuged at 900× g during 5 min. […]
The ABTS radical was prepared by mixing 5 mL of a 7.46 mM ABTS solution with 88 μL of a 140 mM potassium persulfate solution. […] At the end of the incubation, the solution was diluted with MeOH until an absorbance value of 0.700 ± 0.050 at 734 nm was reached. […] After 6 min, absorbance was measured at 734 nm in a UV–Vis spectrophotometer. The absorbance was interpolated and converted to Trolox equivalents using a Trolox calibration curve. […] All the determinations were carried out in triplicate and results were expressed as µmol Trolox equivalents/mg protein ±SD.

AGS cells [7] = assay: Cytoprotection against H2O2-induced stress in AGS cells; assay type: cell-based; settings: Homo sapiens, rutin 100 µg/mL, non-significant, H2O2 control 47.4%, read-out: Cell viability after H2O2 challenge
Protocol: Human AGS gastric adenocarcinoma cells (ATCC CRL-1739, American Type Culture Collection, Manassas, VA, USA) were grown as monolayers in a humidified incubator with 5% CO2 in air at 37 °C in HamF-12 medium supplemented with 2 mM L-glutamine and 1.5 g/L sodium bicarbonate. The medium contained 10% heat inactivated fetal bovine serum (FBS), 100 IU/mL penicillin and 100 µg/mL streptomycin. Cells were plated at 25,000 cells/mL in 96-well plates, with 100 µL per well. Cells were counted by means of the trypan blue exclusion assay in a Neubauer chamber. All the cell-based experiments were carried out using a pool of the extracts from different collection years.
Confluent cultures of AGS cells were incubated for 16 h with 100 µL of the different samples at concentrations ranging from 0 to 400 µg extract/mL). The flavonol rutin (100 µg/mL) was included in this assay for comparison purposes. The sample was dissolved in medium supplemented with 2% FBS and antibiotics. Culture medium was completely removed by vacuum aspiration at the end of the incubation, and cells were washed with 100 µL of PBS. […] Cell viability was determined by means of the MTT reduction assay, as described above. […] Each concentration of the assayed samples was evaluated in quintuplicate. Results are expressed as percentage of the 100% viability control.

Chain of α-glucosidase (P53341 whole entry): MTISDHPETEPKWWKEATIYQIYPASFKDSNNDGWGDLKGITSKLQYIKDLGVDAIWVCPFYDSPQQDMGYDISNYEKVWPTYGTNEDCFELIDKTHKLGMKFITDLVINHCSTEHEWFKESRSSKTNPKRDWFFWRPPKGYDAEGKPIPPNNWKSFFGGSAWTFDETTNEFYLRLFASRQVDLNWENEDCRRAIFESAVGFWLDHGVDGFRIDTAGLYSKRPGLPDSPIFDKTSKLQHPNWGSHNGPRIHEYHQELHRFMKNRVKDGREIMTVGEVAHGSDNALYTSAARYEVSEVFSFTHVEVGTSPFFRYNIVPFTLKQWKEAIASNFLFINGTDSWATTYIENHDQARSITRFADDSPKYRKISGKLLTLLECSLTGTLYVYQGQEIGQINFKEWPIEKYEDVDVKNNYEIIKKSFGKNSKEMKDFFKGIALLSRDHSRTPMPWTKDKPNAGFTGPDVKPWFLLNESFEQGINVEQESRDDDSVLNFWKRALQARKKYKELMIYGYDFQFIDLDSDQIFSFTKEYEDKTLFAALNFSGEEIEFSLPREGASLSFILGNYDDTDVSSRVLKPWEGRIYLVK

- Pancreatic Lipase Inhibition (pancreatic lipase): inactive
- inhibition at 50 µg/mL (α-glucosidase; at a concentration of 50 µg/mL, Sephadex fractions / isolated compounds): 40.1 ± 1.3%
- α-Amylase Inhibiton (α-amylase): inactive
Structure (SMILES): CC(C)(O)CC[C@@H](O)[C@](C)(O)[C@H]1CC[C@@]2(O)C3=CC(=O)[C@@H]4C[C@@H](O)[C@@H](O)C[C@]4(C)[C@H]3CC[C@]12C [20-hydroxyecdysone]
- DPPH assay activity ([1]; isolated compound): inactive
- ORAC value ([2]; isolated compound): 827.3 ± 30.9 µmol TE/g of sample
- FRAP value ([3]; isolated compound): 72.4 ± 7.9 µmol Trolox equivalents/g sample
- TEAC assay activity ([4]; isolated compound): inactive

Structure (SMILES): O=c1c(O)c(-c2ccc(O)c(O)c2)oc2cc(O)cc(O)c12 [Quercetin, quercetin, reference compound]
- DPPH (SC50) ([1]; n = 3, mean ± SD): 7.8 ± 0.3 µg XAD7 Extract/mL
- ORAC ([2]; n = 3, mean ± SD): 22561.6 ± 808.8 µmol TE/g XAD7 Extract
- FRAP ([3]; n = 3, mean ± SD): 1077.2 ± 16.4 µmol TE/g XAD7 Extract
- TEAC ([4]; n = 3, mean ± SD): 8157.9 ± 22.1 µM TE/g XAD7 Extract

Structure (SMILES): N=C(N)NN [aminoguanidine, Aminoguanidine]
- IC50 of TBARS generation in turkey meat [5]: 317.8 ± 20.4 µg/mL

Structure (SMILES): C[C@@H]1O[C@@H](OC[C@H]2O[C@@H](Oc3c(-c4ccc(O)c(O)c4)oc4cc(O)cc(O)c4c3=O)[C@H](O)[C@@H](O)[C@@H]2O)[C@H](O)[C@H](O)[C@H]1O [rutin, quercetin 3-O-rutinoside]
- Increase of total intracellular antioxidant activity (TAA) vs untreated controls (AGS cells [6]): 48.6%
- Pancreatic Lipase Inhibition (pancreatic lipase): inactive
- viability at 100 µg/mL (AGS cells [7]): 46.4%
- inhibition at 50 µg/mL (α-glucosidase): 44.8 ± 1.6%
- α-Amylase Inhibiton (α-amylase): inactive
